Source: patent publication US20070111956A1, “Remedy for sarcoidosis and method of treating the same” (Japan Science and Technology Agency, priority 2003, published 2007)
Where a name gives a salt, the structure may show the parent alone.

Key:
[1] = test system: mice immunized three times with P. acnes; assay: Antibiotic treatment in the mouse pulmonary granuloma (sarcoidosis) model: BAL cell counts and histology; assay type: in vivo; conditions: for decrease of the total number of BAL leukocytes (improved by): percentage in comparison to the control (PBS) group set at 100; for number of CD4+ BAL cells decreased by: two weeks after the third immunization, antibiotics begun before immunization, FIG. 6b
Description: Female C57BL/6J mice of 5 to 7 weeks of age were obtained from CLEA Japan (Shizuoka, Japan) or Japan SLC, Inc. (Tokyo, Japan), and kept under specific pathogen-free (SPF) conditions in the animal facility of the Department of Molecular Preventive Medicine, Graduated School of Medicine, the University of Tokyo. All animal experiments were conducted in accordance with the guidelines of the University of Tokyo.
P. acnes-sensitized CD4^+ T cells were isolated from groins of normal mice and mice immunized three times. Immunization was conducted by subcutaneous injection of 400 μg of heat-killed P. acnes (ATCC11828, American Type Culture Collection, Manassas, Va.) and Freund's complete adjuvant (Difco, Detroit, Mich.) into the footpad at 2-week intervals. CD4^+ cells were isolated with the use of MACS system (Miltenyi Biotech, Bergisch Gladbach, Germany) according to manufacturer's instructions. The purity of CD4^+ cell populations was 94% or higher, as confirmed by immunostaining flow cytometry. The isolated CD4^+ cells (2×10^6 cells/PBS 200 μl) were injected into the tail vein of normal mice, and histological analysis of the lungs was conducted two weeks after the injection.
BAL cells were collected by five injections of 0.8 ml of sterile PBS containing 2% FCS (Sigma, St. Louis, Mo.) and 2 mM EDTA. The total number of BAL leukocytes was counted with a hemocytometer. Before the analysis with EPICS Elite instrument (Beckman Coulter, Miami, Fla.), BAL cells were preincubated with rat anti-mouse CD16/CD32 (clone; 2.4G2) mAb to block FcR-mediated binding, and then incubated for […] at 4° C. with FITC-conjugated anti-CD4 (H129.19) mAb and PE-conjugated anti-CD8a (53-6.7) mAb, both from BD Pharmingen.
Minocycline hydrochloride (MINO) (Wyeth Ledele, Tokyo, Japan) and clindamycin (CLDM) (Pharmacia, Tokyo, Japan) were used. On day one, 133 μg of MINO and 1.6 mg of CLDM were administered intratrancheally (i.t.). Subsequently, the same dose of each antibiotic was injected intraperitoneally (i.p.) everyday for one week before immunization, then intraperitoneal injection was conducted three times per week. During the experiment, mice were given water containing each antibiotic at the same dose as mentioned above. Similarly, ampicillin (ABPC), cefazolin sodium (CEZ), gentamicin sulfate (GM), fosfomycin (FOM), clarithromycin (CAM) were used and single dose of these antibiotics was set by calculating the maximum amount for regular use by adults based on their body weight.

[2] = Examination for nonspecific immunosuppression (ear swelling, spleen index); assay type: in vivo, mouse; conditions: in comparison to PBS control; FIG. 9
[3] = test system: indigenous P. acnes in the mouse lung; assay: PCR detection of indigenous P. acnes in the mouse lung after antibiotics; assay type: in vivo, Propionibacterium acnes; conditions: PBS as a control; FIG. 8
Description: Samples of 1 μg of total RNA were isolated from the lungs, and regional lymph nodes samples of the lung, the liver, the skin and the pancreas of SPF mice using Trizol (Invitrogen, Groningen, the Netherlands) according to the manufacturer's instructions. Then, RNA samples were reverse transcribed into cDNA, and amplified (J. Exp. Med. 193, 35-49, 2001; J. Clin. Invest. 102, 1933-1941, 1998). PCR products of 16s ribosomal RNA of P. acnes were electrophoresed on 2.5% agarose gel. The bands visualized by ethidium bromide staining were expected size for each mRNA product. Oligonucleotide primers for P. acnes were designed as described previously (J. Clin. Microbiol. 40, 198-204, 2002): forward, 5′-[…]-3′ (SEQ ID NO: 1); reverse, 5′-TTCCGACGCGATCAACCA-3′ (SEQ ID NO: 2). Contamination of P. acnes during the experiment was checked by buffer control. As primers for GAPDH as an internal standard, previously described ones were used (J. Exp. Med. 193, 35-49, 2001). PCR conditions: heated at 95° C. for 5 min, followed by 40 cycles of 95° C. for 30 sec, 58° C. for 60 sec, 72° C. for 60 sec, and finally heated at 72° C. for 10 min.
Minocycline hydrochloride (MINO) (Wyeth Ledele, Tokyo, Japan) and clindamycin (CLDM) (Pharmacia, Tokyo, Japan) were used. On day one, 133 μg of MINO and 1.6 mg of CLDM were administered intratrancheally (i.t.). […]

| Molecule | decrease of the total number of BAL leukocytes (improved by) ([1]; FIG. 7) [%] | size of ear swelling [2] | spleen index [2] | decrease of the total number of BAL leukocytes (improved by), group administered for a short period ([1]; FIG. 7, short: antibiotics initiated one month after treatment of the model (at the last immunization), versus PBS set at 100) [%] | number of CD4+ BAL cells decreased by [1] [%] | effect on BAL cells (FIG. 7), in words ([1]; FIG. 7, in comparison to the control (PBS) group) | indigenous P. acnes in the mouse lung by PCR [3] |
| --- | --- | --- | --- | --- | --- | --- | --- |
| CC1(C)S[C@@H]2[C@H](NC(=O)[C@H](N)c3ccccc3)C(=O)N2[C@H]1C(=O)O [ABPC, ampicillin] | 46.1 | – | – | – | – | – | – |
| CC[C@H]1OC(=O)[C@H](C)[C@@H](O[C@H]2C[C@@](C)(OC)[C@@H](O)[C@H](C)O2)[C@H](C)[C@@H](O[C@@H]2O[C@H](C)C[C@H](N(C)C)[C@H]2O)[C@](C)(OC)C[C@@H](C)C(=O)[C@H](C)[C@@H](O)[C@]1(C)O [CAM, clarithromycin] | 48.3 | – | – | – | – | – | – |
| CCC[C@@H]1C[C@@H](C(=O)N[C@@H]([C@H]2O[C@H](SC)[C@H](O)[C@@H](O)[C@H]2O)[C@H](C)Cl)N(C)C1 [CLDM, clindamycin] | 42.1 | no marked differences | no marked differences | 74.3 | 42.1 | – | – |
| CN(C)c1ccc(O)c2c1C[C@H]1C[C@H]3[C@H](N(C)C)C(O)=C(C(N)=O)C(=O)[C@@]3(O)C(O)=C1C2=O [MINO, minocycline hydrochloride] | 53.5 | no marked differences | no marked differences | – | 53.5 | – | – |
| gentamicin sulfate [GM] | – | – | – | – | – | no effect | did not decrease so much |
